Laboratory results from PMC8296708, “The pan HDAC inhibitor Givinostat improves muscle function and histological parameters in two Duchenne muscular dystrophy murine models expressing different haplotypes of the LTBP4 gene” (Skeletal Muscle, 2021).

Tests used:
mdx mice = test: Treadmill run to exhaustion test in mdx mice; assay type: in vivo, mouse (C57BL/10ScSn-Dmd^mdx/J); conditions: for Distance run: 37.5 mg/kg p.o.
Excerpt: For the efficacy studies, C57BL/10 J (Stock No: 000665) wild type (wt) and C57BL/10ScSn-Dmd^mdx/J (Stock No: 001801) 7–8-week-old male mice, DBA/2J wt (Stock No: 000671), and D2.B10-Dmd^mdx/J (Stock No: 013141) 6–7-week-old male mice were purchased from The Jackson Laboratories (Bar Harbor, Maine, USA). After 5 days of acclimatization in the animal facility, mice were randomized into different treatment groups based on their BW. C57BL/10J wt mice were assigned to the naive wt group (healthy mice that received no treatment, but were subjected to functional tests), whereas mdx mice were assigned to the following groups (9 mice/group; 4–5 mice/cage): naive mdx (mice that received no treatment, but were subjected to functional tests), vehicle (0.5% methylcellulose, p.o.), and Givinostat (0.1, 0.3, 1, 5, 10, 25, and 37.5 mg/kg, p.o.). DBA/2J mice were assigned to the naive wt group (healthy mice that received no treatment, but were subjected to functional tests), whereas D2.B10 mice were assigned to the following groups (12–13 mice/group; 4–5 mice/gage): vehicle (filtered tap water, p.o.), Givinostat (1, 5, 10, and 37.5 mg/kg, p.o.), prednisone 1 mg/kg, and Deflazacort 1 mg/kg (i.p.).
In the efficacy studies, Givinostat powder (ITF2357) was suspended in 0.5% methylcellulose (Sigma-Aldrich) and administered p.o. (by gavage) at the doses of 0.1, 0.3, 1, 5, 10, 25, and 37.5 mg/kg qdx5x15weeks (administration volume per mouse: 10 mL/kg) in mdx mice (see Additional Figure 1A). Vehicle-treated mdx mice received 0.5% methylcellulose suspension. Givinostat suspension was stored at + 4 °C, and it was freshly prepared every 7 days. Probably due to the impairment of their tongue and masticatory muscles, the oral gavage procedure turned out to be difficult to perform, and chronic treatment of D2.B10 mice by this route was considered to bear a high risk of damaging the esophagus. For this reason, Givinostat was administered in the drinking water. Givinostat was dissolved in filtered tap water and was administered in drinking water (throughout 24 h) for 105 days at the dose of 1, 5, 10, and 37.5 mg/kg/day, according to a daily estimate of water consumption of 4 ml/mouse/day. Water consumption was weekly monitored throughout the entire duration of the study weighing the bottle of each cage (maximum 4 mice per cage). Prednisone and Deflazacort powder (Sigma-Aldrich) was dissolved in 2% DMSO (Sigma-Aldrich) and diluted in sterile saline on injection days. Both drugs were administered weekly (for 15 weeks) by i.p. injection at the dose of 1 mg/kg in a volume of 10 mL/kg. Givinostat and steroid treatments started on days 7 and 9 of the experimental plan, respectively (see Additional Figure 1B). All mice were monitored daily and tolerability was evaluated on the basis of BW and clinical signs.
Run to exhaustion performance of mdx and D2.B10 mice was evaluated every 14 or 21 days, respectively, using a treadmill apparatus (Ugo Basile SRL, Italy). The exhaustion protocol consisted in an initially horizontal running at 5 m/min for 5 min after which the speed was increased 1 m/min every minute until exhaustion (the procedure was compliant with the standard operating procedures of TREAT–NMD Neuromuscular Network). The test was concluded when mice remained for more than 10 s on the shocker plate (for both C57BL/10 J and mdx mice) or when D2.B10 mice reached a maximum number of shocks. Due to the excessive stress caused to D2.B10 mice by this functional test, a maximum number of 600 and 150 shocks was set. These experimental conditions were also applied to the DBA/2J wt healthy mice.
After taking baseline readings for behavioral assays (FNmax and distance run by the animals), mice were re-randomized based on these two parameters, also considering the previous randomization performed on their BW.
The grip strength and run to exhaustion tests were performed during the light-cycle phase, in the early hours of the morning (8:00–11:30 am). […]

Body weight of mdx mice = assay type: in vivo, mouse (C57BL/10ScSn-Dmd^mdx/J)
Description: In the efficacy studies, Givinostat powder (ITF2357) was suspended in 0.5% methylcellulose (Sigma-Aldrich) and administered p.o. (by gavage) at the doses of 0.1, 0.3, 1, 5, 10, 25, and 37.5 mg/kg qdx5x15weeks (administration volume per mouse: 10 mL/kg) in mdx mice (see Additional Figure 1A). Vehicle-treated mdx mice received 0.5% methylcellulose suspension. Givinostat suspension was stored at + 4 °C, and it was freshly prepared every 7 days. Probably due to the impairment of their tongue and masticatory muscles, the oral gavage procedure turned out to be difficult to perform, and chronic treatment of D2.B10 mice by this route was considered to bear a high risk of damaging the esophagus. For this reason, Givinostat was administered in the drinking water. […] Water consumption was weekly monitored throughout the entire duration of the study weighing the bottle of each cage (maximum 4 mice per cage). […] All mice were monitored daily and tolerability was evaluated on the basis of BW and clinical signs.
In both efficacy studies, the effectiveness of treatments was evaluated every week by measuring the forelimb strength by a grip strength meter (Ugo Basile SRL, Italy). BW of mdx (see Additional Figure 2) and D2.B10 mice (see Additional Figure 3) was also measured in order to normalize the absolute grip strength of each mouse with respect to its BW. […]

D2.B10 mice = test: Histopathological evaluation of severity of myodystrophy in D2.B10 mice; assay type: in vivo, mouse (D2.B10-Dmd^mdx/J); conditions: T8 and T16
Description: In these experiments, the histopathological evaluation of muscle inflammatory infiltrate, adipose tissue deposition, regeneration, and degeneration of the muscular tissue was also performed. The severity of myodystrophy in the different muscles (TA, GAS and DIA) was quantified through a weighted histopathological method that considered some parameters scored by severity and extension of the injury: muscle degeneration/necrosis, regeneration, inflammatory infiltrate, interstitial reaction, and adipose tissue deposition. Each parameter was classified by severity (mild = 1, moderate = 2, and severe = 3) and extension (focal = 1, multifocal = 2, and diffuse = 3). The individual severity score was calculated for each animal and an average score per group was calculated.

[1] = system: murine models of diastolic dysfunction; design: method as in PMID 29437146; conditions: drug admixed to the diet; cited from earlier work

In the case of `CCN(CC)Cc1ccc2cc(COC(=O)Nc3ccc(C(=O)NO)cc3)ccc2c1` [Givinostat], the Distance run (mdx mice; day 31) is reported as 785 ± 97 m, the Distance run (mdx mice; day 44) is reported as 693 ± 103 m and the Distance run (mdx mice; day 94) is reported as 410 ± 40 m. The “Lowest effective dose on time to exhaustion” value (mdx mice; day 94) was 0.3 mg/kg, the Time to exhaustion (mdx mice; highest dose (37.5 mg/kg), day 94, vs vehicle) was “significantly prolonged the time to exhaustion” and the “Distance run, significance of doses lower than 37.5 mg/kg” value (mdx mice; lower doses, trend of dose-response) was “did not reach significance”. The Body weight (Body weight of mdx mice; 25 mg/kg, day 105 (vehicle 37.2 ± 0.8, p < 0.01)) was 32.9 ± 0.9 g, the Body weight (Body weight of mdx mice; 37.5 mg/kg, day 105 (vehicle 37.2 ± 0.8, p < 0.05)) was 33.1 ± 0.9 g and the “Histological evaluation of inflammatory infiltrate, adipose tissue deposition, regeneration, degeneration” value (D2.B10 mice) was “not significantly different among the treatment groups”. The “Efficacy in two murine models of diastolic dysfunction with preserved ejection fraction” value [1] was “highly efficacious”.
